Converted amounts (≈) assume the structure as drawn.
Legend:
Format in all cases: cell-based
ESCHERICHIA COLI SS = assay: In vitro antibacterial activity, MIC, BHI agar dilution; settings: E. coli SS, unit assumed
ESCHERICHIA COLI KNK 437 = settings: E. coli KNK 437; BHI agar; unit assumed
[1] = system: ACINETOBACTER CALCOACETICUS CMX 669; assay: In vitro antibacterial activity, MIC, BHI agar dilution; settings: A. calcoaceticus CMX 669, unit assumed
[2] = system: PSEUDOMONAS AERUGINOSA BMH10; assay: as above; settings: P. aeruginosa BMH10, unit assumed
[3] = system: PROVIDENCIA STUARTII CMX 640; settings: P. stuartii CMX 640; BHI agar; unit assumed
CANDIDA ALBICANS CCH 442 = assay: In vitro antibacterial activity, MIC, BHI agar dilution; settings: C. albicans CCH 442, unit assumed
[4] = system: ENTEROBACTER AEROGENES ATCC 13048; assay: as above; settings: E. aerogenes ATCC 13048, unit assumed
[5] = system: PSEUDOMONAS AERUGINOSA K799/WT; assay: as above; settings: P. aeruginosa K799/WT, unit assumed
[6] = system: STREPTOCOCCUS PYOGENES 930; assay: as above; settings: S. pyogenes 930, unit assumed
ESCHERICHIA COLI JUHL = settings: E. coli JUHL; BHI agar; unit assumed
[7] = system: STAPHYLOCOCCUS AUREUS CMX 642A; assay: In vitro antibacterial activity, MIC, BHI agar dilution; settings: S. aureus CMX 642A, unit assumed
[8] = system: STAPHYLOCOCCUS AUREUS ATCC 6538P; assay: as above; settings: S. aureus ATCC 6538P, 35-37° C., 20 to 24 hours, unit assumed
[9] = system: PSEUDOMONAS AERUGINOSA DPHD-2862; assay: as above; settings: P. aeruginosa DPHD-2862, unit assumed
[10] = system: PSEUDOMONAS AERUGINOSA 5007; assay: as above; settings: P. aeruginosa 5007, unit assumed
ESCHERICHIA COLI DC-2 = assay: as above; settings: E. coli DC-2, unit assumed
[11] = system: STAPHYLOCOCCUS EPIDERMIDIS 3519; settings: S. epidermidis 3519; BHI agar; unit assumed
ESCHERICHIA COLI H560 = assay: In vitro antibacterial activity, MIC, BHI agar dilution; settings: E. coli H560, unit assumed
[12] = system: STAPHYLOCOCCUS AUREUS A-5278; assay: as above; settings: S. aureus A-5278, unit assumed
[13] = system: PSEUDOMONAS AERUGINOSA DPHD-5263; assay: as above; settings: P. aeruginosa DPHD-5263, unit assumed
PSEUDOMONAS CEPACIA 296I = assay: as above; settings: P. cepacia 296I, unit assumed
[14] = system: STREPTOCOCCUS BOVIS A-5169; assay: as above; settings: S. bovis A-5169, unit assumed
[15] = system: STAPHYLOCOCCUS AUREUS A5177; assay: as above
EN[…] ATCC 8043 = assay: as above; settings: E. faecium ATCC 8043, unit assumed
Method in brief: (§1)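 MIC was read visually as the lowest drug level with no growth, a slight haze or sparsely isolated colonies relative to a compound-free growth control. Organisms were spotted at 1:100 dilution (1:10 for slow-growing strains) onto Brain Heart Infusion agar containing serial compound dilutions and incubated 20 to 24 hours at 35-37° C.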

M[…] ATCC 9341 = assay: as above; settings: M. luteus ATCC 9341, unit assumed
Method in brief: as §1

STR[…] 508 = assay: as above; settings: S. agalactiae CMX 508, unit assumed
Method in brief: as §1

M[…] ATCC 4698 = assay: as above; settings: M. luteus ATCC 4698, unit assumed
Method in brief: as §1

[16] = system: PSEUDOMONAS AERUGINOSA K799/61; assay: as above; settings: P. aeruginosa K799/61, unit assumed
[17] = system: KLEBSIELLA PNEUMONIAE ATCC 8045; assay: as above; settings: K. pneumoniae ATCC 8045, unit assumed
[18] = system: STAPHYLOCOCCUS AUREUS NCTC10649M; assay: as above; settings: S. aureus NCTC10649M, unit assumed
[19] = system: STAPHYLOCOCCUS AUREUS 1775; assay: as above; settings: S. aureus 1775, unit assumed
[20] = system: MYCOBACTERIUM SMEGMATIS ATCC 114; assay: as above; settings: M. smegmatis ATCC 114, unit assumed
[21] = system: STREPTOCOCCUS PYOGENES EES61; assay: as above; settings: S. pyogenes EES61, unit assumed
[22] = system: STAPHYLOCOCCUS AUREUS CMX 553; assay: as above; settings: S. aureus CMX 553, unit assumed

| Structure (SMILES) | MIC (ESCHERICHIA COLI SS) [µg/mL] | MIC (ESCHERICHIA COLI KNK 437) [µg/mL] | MIC [1] [µg/mL] | MIC [2] [µg/mL] | MIC [3] [µg/mL] | MIC (CANDIDA ALBICANS CCH 442) [µg/mL] | MIC [4] [µg/mL] | MIC [5] [µg/mL] | MIC (ESCHERICHIA COLI JUHL) [µg/mL] | MIC [7] [µg/mL] | MIC [8] [µg/mL] | MIC [9] [µg/mL] | MIC [10] [µg/mL] | MIC (ESCHERICHIA COLI DC-2) [µg/mL] | MIC [11] [µg/mL] | MIC (ESCHERICHIA COLI H560) [µg/mL] | MIC [12] [µg/mL] | MIC [13] [µg/mL] | MIC (PSEUDOMONAS CEPACIA 296I) [µg/mL] | MIC [14] [µg/mL] | also measured |
| --- | --- | --- | --- | --- | --- | --- | --- | --- | --- | --- | --- | --- | --- | --- | --- | --- | --- | --- | --- | --- | --- |
| CCC1OC(=O)C(C)C(=O)C(C)C(OC2OC(C)CC(N(C)C)C2O)C(C)(OC)CC(C)C2=NC(CN)CN3C(=O)OC1(C)C3C2C (centres unmarked) [Example 16] | 0.1 (≈ 0.15 µM) | 12.5 (≈ 18.7 µM) | 12.5 (≈ 18.7 µM) | 50 (≈ 75 µM) | > 100 | > 100 | 12.5 (≈ 18.7 µM) | 100 (≈ 150 µM) | 12.5 (≈ 18.7 µM) | 0.2 (≈ 0.3 µM) | 0.2 (≈ 0.3 µM) | > 100 | > 100 | 12.5 (≈ 18.7 µM) | 0.2 (≈ 0.3 µM) | 6.2 (≈ 9.3 µM) | > 100 | > 100 | > 100 | 0.02 (≈ 0.03 µM) | MIC [6]: > 100 µg/mL; MIC ([15]; S. aureus A5177, unit assumed): 0.39 µg/mL (≈ 0.585 µM); MIC (EN[…] ATCC 8043): 0.2 µg/mL (≈ 0.3 µM); MIC (M[…] ATCC 9341): 0.02 µg/mL (≈ 0.03 µM); MIC (STR[…] 508): 0.05 µg/mL (≈ 0.075 µM); MIC (M[…] ATCC 4698): 0.2 µg/mL (≈ 0.3 µM); MIC [16]: 0.39 µg/mL (≈ 0.585 µM); MIC [17]: 12.5 µg/mL (≈ 18.7 µM); MIC [18]: 0.2 µg/mL (≈ 0.3 µM); MIC [19]: > 100 µg/mL; MIC [20]: 1.56 µg/mL (≈ 2.34 µM); MIC [21]: 0.01 µg/mL (≈ 0.015 µM); MIC [22]: 0.39 µg/mL (≈ 0.585 µM) |
| CC[C@H]1OC(=O)[C@H](C)C(=O)[C@H](C)[C@@H](O[C@@H]2O[C@H](C)C[C@H](N(C)C)[C@H]2O)[C@](C)(OC)C[C@@H](C)C2=N[C@H](COCc3ccccc3)CN3C(=O)O[C@@]1(C)[C@H]3[C@H]2C [Example 88] | 1.56 (≈ 2.06 µM) | > 100 | 100 (≈ 132 µM) | > 100 | > 100 | > 100 | > 100 | > 100 | > 100 | 0.39 (≈ 0.515 µM) | 0.39 (≈ 0.515 µM) | > 100 | > 100 | > 100 | 0.39 (≈ 0.515 µM) | 100 (≈ 132 µM) | > 100 | > 100 | 100 (≈ 132 µM) | 0.02 (≈ 0.0264 µM) | MIC ([15]; S. aureus A5177, unit assumed): 0.2 µg/mL (≈ 0.264 µM); MIC (EN[…] ATCC 8043): 0.2 µg/mL (≈ 0.264 µM); MIC (M[…] ATCC 9341): 0.1 µg/mL (≈ 0.132 µM); MIC (STR[…] 508): 0.05 µg/mL (≈ 0.066 µM); MIC (M[…] ATCC 4698): 0.2 µg/mL (≈ 0.264 µM); MIC [16]: 6.2 µg/mL (≈ 8.18 µM); MIC [17]: > 100 µg/mL; MIC [18]: 0.2 µg/mL (≈ 0.264 µM); MIC [19]: > 100 µg/mL; MIC [20]: 0.39 µg/mL (≈ 0.515 µM); MIC [21]: ≤ 0.005 µg/mL; MIC [22]: 0.2 µg/mL (≈ 0.264 µM) |
| CC[C@H]1OC(=O)[C@H](C)C(=O)[C@H](C)[C@@H](O[C@@H]2O[C@H](C)C[C@H](N(C)C)[C@H]2O)[C@](C)(OC)C[C@@H](C)C2=N[C@H](COCc3ccc(C#N)cc3)CN3C(=O)O[C@@]1(C)[C@H]3[C@H]2C [Example 74] | 0.39 (≈ 0.498 µM) | > 100 | 50 (≈ 63.9 µM) | > 100 | > 100 | > 100 | > 100 | 100 (≈ 128 µM) | > 100 | 0.2 (≈ 0.255 µM) | 0.2 (≈ 0.255 µM) | > 100 | > 100 | 100 (≈ 128 µM) | 0.2 (≈ 0.255 µM) | 100 (≈ 128 µM) | > 100 | > 100 | 50 (≈ 63.9 µM) | ≤ 0.005 | MIC [6]: > 100 µg/mL; MIC ([15]; S. aureus A5177): 0.1 µg/mL (≈ 0.128 µM); MIC (EN[…] ATCC 8043): 0.02 µg/mL (≈ 0.0255 µM); MIC (M[…] ATCC 9341): 0.02 µg/mL (≈ 0.0255 µM); MIC (STR[…] 508): 0.02 µg/mL (≈ 0.0255 µM); MIC (M[…] ATCC 4698): 0.39 µg/mL (≈ 0.498 µM); MIC [16]: 3.1 µg/mL (≈ 3.96 µM); MIC [17]: > 100 µg/mL; MIC [18]: 0.1 µg/mL (≈ 0.128 µM); MIC [19]: > 100 µg/mL; MIC [20]: 0.39 µg/mL (≈ 0.498 µM); MIC [21]: ≤ 0.005 µg/mL; MIC [22]: 0.1 µg/mL (≈ 0.128 µM) |

Source: patent US6274715A, “Tricyclic erythromycin derivatives” (priority 1997, dated 2001)
